Earlier results, collected in patent US20060148897A1, “Method for sterilization using in situ gelling materials” (priority 2002, published 2006).

Details: amine group (alpha amine; lysine: side chain epsilon amine)

Row | SMILES | pK
1 | NC(=O)C[C@H](N)C(=O)O [asparagine] | 8.8
2 | NCCCC[C@H](N)C(=O)O [lysine] | 10.80
